In patent US20020166134A1, “Cardiomyocytes with enhanced proliferative potenial, and methods for preparing and using same” (priority 1999, published 2002):

Legend:
[1] = tested on: cardiomyocytes; test: Tritiated thymidine incorporation assay of cardiomyocyte DNA synthesis (labeling index) in adult transgenic mice, with or without isoproterenol infusion; type: in vivo; settings: for Left Atrium cardiomyocyte labeling index / Right Atrium cardiomyocyte labeling index / Ventricle cardiomyocyte labeling index: isoproterenol infusion 7 days
Text: A thymidine incorporation assay was used to determine if cardiomyocyte DNA synthesis persisted in adult transgenic MCH-CYCD2 animals. This testing also employed a second transgenic mouse line, designated MHC-nLAC. The MCH-nLAC mice express a nuclear localized β-galactosidase (βGAL) reporter gene exclusively in the cardiomyocytes (Soonpaa, M. H. et al., Science 264:98-101 (1994); Soonpaa, M. H. and L. J. Field, Am. J. Physiol. 272:H220-226 (1997)). Accurate cardiomyocyte tritiated thymidine labeling indices can be readily obtained with the MHC-nLAC animals simply by screening for co-localization of βGAL activity and silver grains in autoradiographs of 5-bromo-4-chloro-3-indolyl-B-D-galactoside (X-GAL) stained heart sections. To monitor the effect of cyclin D2 overexpression on cardiomyocyte DNA synthesis, MHC-CYCD2 mice were crossed with MHC-nLAC mice and animals carrying either the MHC-nLAC transgene alone or both transgenes were identified and sequestered. When the mice reached 11 weeks of age, they received a single injection of tritiated thymidine and were sacrificed four hours later. The hearts were removed, sectioned, stained with X-GAL and processed for autoradiography. […] In light of the sustained cardiomyocyte DNA synthesis observed in the adult MHC-CYCD2 mouse hearts, a series of experiments was initiated to ascertain how the transgenic myocardium would respond to cardiac hypertrophy. Osmotic mini-pumps (Model 2001, Alzet, Palo Alto, Calif., flow rate of 1 μl per hour) filled with saline or 0.028 g/ml isoproterenol in saline were implanted through a small longitudinal incision between the scapulae. 8 control mice (MHC-nLAC) and 8 cyclin D2 mice (MHC-nLAC/MHC-CYCD2 double transgenics) were used.
Prior to sacrifice, the experimental and control mice received a bolus injection of tritiated thymidine to permit assessment of cardiomyocyte DNA synthesis. After a 4 hour chase, the animals were sacrificed, and the hearts were harvested, cryoprotected, sectioned, stained with X-GAL and subjected to autoradiography. Once again, cardiomyocyte DNA synthesis was measured by scoring the presence of silver grains over βGAL positive nuclei. […] Isoproterenol treatment had no effect on cardiomyocyte DNA synthesis in the non-cyclin expressing control group.
Pulse chase experiments were employed to determine the fate of the cardiomyocytes synthesizing DNA. Once again, MHC-CYCD2 mice were crossed with MHC-nLAC mice. The MHC-nLAC mice express a nuclear localized β-GAL reporter exclusively in cardiomyocytes. Mice from this cross carrying either the MHC-nLAC transgene alone or both the MHC-nLAC and MHC-CYCD2 transgenes were identified and sequestered. At 11 weeks of age, myocardial hypertrophy was induced by isoproterenol infusion with Alzet minipumps (minipump model 2001, Alzet, Palo Alto Calif.; flow rate of 1 μl/hr, 0.028 g/ml isoproterenol). After 7 days of isoproterenol infusion, the control (MHC-nLAC) and experimental (MHC-nLAC/MHC-CYCD2 double transgenic) mice received a single injection of 3H-thymidine (200 uCi I.P. at 28 Ci/mM, Amersham, Arlington Heights, Ill.), and were sacrificed either 4 hours (pulse, FIG. 3A) or 72 hours (chase, FIG. 3B) later. The hearts were removed, cryoprotected in 30% sucrose, embedded and sectioned at 10 μm using standard histologic techniques. The sections were post-fixed in formaldehyde:glutaraldehyde (1:1) and overlaid with 1 mg/ml X-GAL, 5 mM potassium ferricyanide, 5 mM potassium ferrocyanide and 2 mM magnesium chloride in PBS. The sections were counter-stained with DAPI, and washed three times in PBS. After drying, stained slides were coated with photographic emulsion (Ilford L.4, Polysciences, Warrington Pa.) diluted 1:1 with water, drained, and placed in a light-tight box for four days at 4° C. Slides were then developed in Kodak D-19 (Rochester N.Y.) for four minutes, washed in water, and fixed in 30% sodium thiosulfate for at least four minutes. […]

[2] = tested on: cell cycle protein; test: Western blot analysis of cell cycle protein level changes in response to isoproterenol; type: in vivo, mice; design: key to Cyclin D2 protein level: higher numbers of the symbol “+” indicate higher levels of protein; the symbol “−” indicates none detected; settings: 7 days infusion
Experimental: Western blots were used to analyze protein expression levels in adult MHC-CYCD2 mice and their non-transgenic litter mates. Hearts were homogenized in NP40 buffer (150 mM NaCl, 5 mM EDTA, 50 mM Tris-HCl pH 8.0, 1 μg/ml aprotinin, 1 μg/ml pepstatin, 1 μg/ml leupeptin, 50 μg/ml TLCK, 50 μg/ml PMSF, 100 μg/ml TPCK, 1% vol/vol Nonidet P-40). The homogenate was cleared by centrifugation at 40,000× g for 10 min, and the protein content of the supernatant was quantitated using a commercial assay (Bio-Rad, Richmond Calif.). Samples were separated by size on 10% polyacrylamide gels under denaturing conditions as described, and electro-blotted to nitrocellulose (Hoefer Scientific, San Francisco Calif.) membranes. The filters were stained with 0.1% naphthol blue-black in 45% methanol, 10% acetic acid to assess the efficiency of transfer. For Western analysis, nonspecific binding was blocked by incubation in block buffer (5% nonfat dry milk, 3% BSA, 0.1% Tween, 1×PBS) for 2 hr at room temperature. Commercial antibodies were used for each protein analyzed. Conditions (i.e. dilution, length of reaction, secondary antibody, etc) were according to the manufacturer's recommendations. The results are presented in Table 4 below, in which higher numbers of the symbol “+” indicate higher levels of protein, and the symbol “−” indicates none detected.
Myocardial hypertrophy was induced by isoproterenol infusion with Alzet minipumps in adult MHC-CYCD2 mice and their non-transgenic siblings (minipump model 2001, Alzet, Palo Alto Calif.; flow rate of 1 μl/hr, 0.028 g/ml isoproterenol). Hearts were harvested after 7 days of isoproterenol infusion and processed for Western blot analysis using procedures as described in Example 4. Again, higher numbers of the symbol “+” indicate higher levels of protein, and the symbol “−” indicates none detected.

[3] = Heart weight/body weight; type: in vivo, mice
Text: A thymidine incorporation assay was used to determine if cardiomyocyte DNA synthesis persisted in adult transgenic MCH-CYCD2 animals. This testing also employed a second transgenic mouse line, designated MHC-nLAC. The MCH-nLAC mice express a nuclear localized β-galactosidase (βGAL) reporter gene exclusively in the cardiomyocytes (Soonpaa, M. H. et al., Science 264:98-101 (1994); Soonpaa, M. H. and L. J. Field, Am. J. Physiol. 272:H220-226 (1997)). Accurate cardiomyocyte tritiated thymidine labeling indices can be readily obtained with the MHC-nLAC animals simply by screening for co-localization of βGAL activity and silver grains in autoradiographs of 5-bromo-4-chloro-3-indolyl-B-D-galactoside (X-GAL) stained heart sections. To monitor the effect of cyclin D2 overexpression on cardiomyocyte DNA synthesis, MHC-CYCD2 mice were crossed with MHC-nLAC mice and animals carrying either the MHC-nLAC transgene alone or both transgenes were identified and sequestered. When the mice reached 11 weeks of age, they received a single injection of tritiated thymidine and were sacrificed four hours later. The hearts were removed, sectioned, stained with X-GAL and processed for autoradiography. […]

[4] = tested on: cardiomyocytes from the left atria of MHC-CYCD2 transgenic mice; test: Number of cardiomyocyte nuclei (kariokinesis) in left atrial cultures with isoproterenol; type: cell-based; settings: isoproterenol 1 μm, 72 hrs, left atria of day 14 MHC-CYCD2 mice, FIG. 5
Experimental: Left atria from neonatal day 14 MHC-CYCD2 transgenic mice were harvested and digested in PBS (37° C., 60 min) containing 0.17% collagenase (Type I, Worthington Biochemical, Freehold N.J.). Cells were then triturated with a Pasteur pipette and plated at a density of 1×10^5 cells per chamber slide. Cells were cultured in DMEM supplemented with 10% FBS. In some cases, the media also contained isoproterenol (1 μm). After 72 hrs., the slides were fixed in gluteraldehyde-formaldehyde (1:1) and overlaid with 1 mg/ml X-GAL, 5 mM potassium ferricyanide, 5 mM potassium ferrocyanide and 2 mM magnesium chloride in PBS. The number of blue nuclei were counted directly on a microscope.

[5] = Control mice, isoproterenol treated 7 days
[6] = MHC-CYCD2 mice, listed as Isoproterenol

## CC(C)NCC(O)c1ccc(O)c(O)c1 (centres unmarked) [isoproterenol]
[1]; Control (MHC-nLAC) mice
  Left Atrium cardiomyocyte labeling index: 0%
  Right Atrium cardiomyocyte labeling index: 0%
  Ventricle cardiomyocyte labeling index: 0%
[1]; [5]
  Left Atrial DNA Synth. (%) Iso(7 days): 0.00%
  Ventricular DNA Synth. (%) Iso(7 days): 0.00%
[1]; MHC-CYCD2 mice
  Left Atrium cardiomyocyte labeling index: 7.28%
  Ventricle cardiomyocyte labeling index: moderately decreased
[1]; [6]
  Left Atrium cardiomyocyte labeling index: 7.28%
  Right Atrium cardiomyocyte labeling index: 0.29%
  Ventricle cardiomyocyte labeling index: 0.11%
[1]; non-cyclin expressing control group, isoproterenol treatment
  effect on cardiomyocyte DNA synthesis: no effect
[2]; NonTransgenic (+Iso)
  CDC2 protein level: + +
  Cyclin D2 protein level: +
  PCNA protein level: + +
[2]; Transgenic (+Iso)
  CDC2 protein level: + + + +
  Cyclin D2 protein level: + + + + +
  PCNA protein level: + + + +
[3]; control mice, isoproterenol vs saline treated animals
  increase in heart weight/body weight: 28%
[3]; cyclin expressing mice, continuous isoproterenol 7 days
  increase in heart weight/body weight: 47.6%
[4]
  number of cardiomyocyte nuclei in the culture: substantial increase
